{
  "source": "ChEMBL document CHEMBL5465560",
  "about": "“Selectivity Literature for EUbOPEN Chemogenomic Library” (2024)",
  "key": {"[1]": {"target": "T1, Serine/threonine-protein kinase BRSK2 (Homo sapiens) (UniProt Q8IWQ3)", "T1 sequence (whole entry)": "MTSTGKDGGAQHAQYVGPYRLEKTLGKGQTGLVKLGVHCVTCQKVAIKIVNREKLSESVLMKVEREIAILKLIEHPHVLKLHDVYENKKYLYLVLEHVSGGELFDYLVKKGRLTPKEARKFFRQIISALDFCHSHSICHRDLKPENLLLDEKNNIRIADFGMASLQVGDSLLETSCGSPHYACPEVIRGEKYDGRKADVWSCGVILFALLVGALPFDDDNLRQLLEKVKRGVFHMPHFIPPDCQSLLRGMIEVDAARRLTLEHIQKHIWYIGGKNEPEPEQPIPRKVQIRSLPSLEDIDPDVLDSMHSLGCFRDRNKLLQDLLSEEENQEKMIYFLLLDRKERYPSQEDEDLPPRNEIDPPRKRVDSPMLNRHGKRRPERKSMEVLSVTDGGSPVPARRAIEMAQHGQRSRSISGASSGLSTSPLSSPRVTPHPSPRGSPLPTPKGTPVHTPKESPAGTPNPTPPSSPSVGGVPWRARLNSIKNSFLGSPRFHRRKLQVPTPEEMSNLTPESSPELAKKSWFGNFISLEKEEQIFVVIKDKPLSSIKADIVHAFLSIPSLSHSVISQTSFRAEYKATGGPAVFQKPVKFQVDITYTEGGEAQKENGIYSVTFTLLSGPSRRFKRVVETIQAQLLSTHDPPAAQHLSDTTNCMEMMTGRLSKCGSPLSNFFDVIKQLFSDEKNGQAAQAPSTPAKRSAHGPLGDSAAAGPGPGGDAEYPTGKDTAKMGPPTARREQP", "test": "Selectivity interaction (LanthaScreen Eu Kinase Binding Assay) EUB0001632a BRSK2", "details": "at 10 µM"}, "[2]": {"target": "T2, Muscle, skeletal receptor tyrosine-protein kinase (Homo sapiens) (UniProt O15146)", "T2 sequence (whole entry)": "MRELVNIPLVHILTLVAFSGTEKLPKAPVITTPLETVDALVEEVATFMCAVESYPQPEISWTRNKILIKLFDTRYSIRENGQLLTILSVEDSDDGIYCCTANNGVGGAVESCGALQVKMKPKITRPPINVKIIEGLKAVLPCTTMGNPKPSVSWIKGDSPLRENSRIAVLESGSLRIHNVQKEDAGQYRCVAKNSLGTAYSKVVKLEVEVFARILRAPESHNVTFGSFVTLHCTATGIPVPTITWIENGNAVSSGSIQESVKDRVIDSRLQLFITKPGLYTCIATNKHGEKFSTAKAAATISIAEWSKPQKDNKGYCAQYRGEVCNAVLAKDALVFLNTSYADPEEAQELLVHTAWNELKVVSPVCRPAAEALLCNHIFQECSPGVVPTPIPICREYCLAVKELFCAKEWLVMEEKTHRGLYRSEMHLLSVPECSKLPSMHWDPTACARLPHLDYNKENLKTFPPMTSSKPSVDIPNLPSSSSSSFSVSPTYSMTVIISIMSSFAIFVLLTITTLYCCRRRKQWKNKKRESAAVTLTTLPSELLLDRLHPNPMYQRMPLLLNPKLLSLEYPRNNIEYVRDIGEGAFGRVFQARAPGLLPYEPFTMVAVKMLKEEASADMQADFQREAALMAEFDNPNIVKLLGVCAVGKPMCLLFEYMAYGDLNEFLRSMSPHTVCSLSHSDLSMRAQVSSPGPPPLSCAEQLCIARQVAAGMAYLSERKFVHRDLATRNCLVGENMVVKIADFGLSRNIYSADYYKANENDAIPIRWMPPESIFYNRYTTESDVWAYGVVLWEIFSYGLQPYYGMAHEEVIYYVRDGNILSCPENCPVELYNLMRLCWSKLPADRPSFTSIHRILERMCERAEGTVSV", "test": "Selectivity interaction (SelectScreen profiling (Invitrogen)) EUB0000607a MUSK", "details": "at 2 µM"}, "[3]": {"target": "Phosphatidylinositol 4-kinase type 2-alpha (Homo sapiens) (UniProt Q9BTU6)", "sequence (Q9BTU6 whole entry)": "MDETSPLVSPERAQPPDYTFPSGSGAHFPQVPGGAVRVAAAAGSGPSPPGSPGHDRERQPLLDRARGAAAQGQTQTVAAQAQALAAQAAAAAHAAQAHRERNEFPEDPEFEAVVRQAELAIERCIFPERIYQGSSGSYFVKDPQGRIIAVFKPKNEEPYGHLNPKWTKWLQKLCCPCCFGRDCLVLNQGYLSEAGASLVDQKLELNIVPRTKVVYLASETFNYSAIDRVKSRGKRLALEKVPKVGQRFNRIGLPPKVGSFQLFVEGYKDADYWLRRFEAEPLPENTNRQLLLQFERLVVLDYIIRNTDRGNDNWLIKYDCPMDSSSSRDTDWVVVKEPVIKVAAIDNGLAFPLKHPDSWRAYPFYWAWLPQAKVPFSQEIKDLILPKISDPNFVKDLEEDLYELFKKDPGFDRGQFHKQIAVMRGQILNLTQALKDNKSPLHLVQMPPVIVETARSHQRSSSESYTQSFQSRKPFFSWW", "test": "Selectivity interaction (ProQinase) EUB0000171b PI4K2A"}, "[4]": {"target": "Serine/threonine-protein kinase PAK 2 (Homo sapiens) (UniProt Q13177)", "sequence (Q13177 whole entry)": "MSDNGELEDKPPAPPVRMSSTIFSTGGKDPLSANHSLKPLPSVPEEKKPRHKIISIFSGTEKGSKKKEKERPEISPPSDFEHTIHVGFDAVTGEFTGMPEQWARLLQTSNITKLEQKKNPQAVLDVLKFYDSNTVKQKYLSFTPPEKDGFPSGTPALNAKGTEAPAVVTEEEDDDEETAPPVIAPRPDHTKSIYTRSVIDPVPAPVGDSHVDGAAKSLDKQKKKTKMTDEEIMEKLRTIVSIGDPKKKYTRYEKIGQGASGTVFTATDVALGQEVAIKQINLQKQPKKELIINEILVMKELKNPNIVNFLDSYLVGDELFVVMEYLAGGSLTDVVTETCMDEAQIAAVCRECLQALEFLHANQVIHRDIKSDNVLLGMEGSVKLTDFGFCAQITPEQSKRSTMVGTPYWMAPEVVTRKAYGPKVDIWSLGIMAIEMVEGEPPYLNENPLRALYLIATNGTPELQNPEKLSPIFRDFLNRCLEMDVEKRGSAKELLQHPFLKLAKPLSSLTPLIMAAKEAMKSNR", "test": "Selectivity interaction (ProQinase) EUB0000171b PAK2"}, "[5]": {"target": "Mitogen-activated protein kinase 7 (Homo sapiens) (UniProt Q13164)", "sequence (Q13164 2-816 limits assumed)": "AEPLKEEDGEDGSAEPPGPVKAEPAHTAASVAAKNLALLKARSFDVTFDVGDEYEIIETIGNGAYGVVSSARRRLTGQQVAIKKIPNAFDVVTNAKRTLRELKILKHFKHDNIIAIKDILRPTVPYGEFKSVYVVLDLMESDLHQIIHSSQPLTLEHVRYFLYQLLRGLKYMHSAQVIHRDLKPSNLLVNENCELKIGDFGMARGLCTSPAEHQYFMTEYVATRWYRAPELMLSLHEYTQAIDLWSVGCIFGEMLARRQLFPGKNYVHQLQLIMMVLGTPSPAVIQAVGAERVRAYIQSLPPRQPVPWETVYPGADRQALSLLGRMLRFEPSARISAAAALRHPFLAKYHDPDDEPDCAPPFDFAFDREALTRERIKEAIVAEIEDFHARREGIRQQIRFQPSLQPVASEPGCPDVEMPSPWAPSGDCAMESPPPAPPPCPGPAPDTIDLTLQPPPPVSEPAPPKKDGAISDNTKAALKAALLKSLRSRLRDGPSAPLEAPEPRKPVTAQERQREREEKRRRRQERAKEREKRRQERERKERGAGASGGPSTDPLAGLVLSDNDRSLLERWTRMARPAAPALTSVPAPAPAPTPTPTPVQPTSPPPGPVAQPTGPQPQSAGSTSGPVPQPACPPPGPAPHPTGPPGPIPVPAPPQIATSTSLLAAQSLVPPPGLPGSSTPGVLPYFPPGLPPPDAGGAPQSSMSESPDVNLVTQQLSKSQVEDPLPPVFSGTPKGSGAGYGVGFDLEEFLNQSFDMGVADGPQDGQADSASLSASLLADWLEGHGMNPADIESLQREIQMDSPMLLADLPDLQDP", "test": "Selectivity interaction (KinomeScan (DiscoverX)) EUB0000695a MAPK7", "details": "at 100 nM"}, "[6]": {"target": "Cyclin-dependent kinase 2 (Homo sapiens, UniProt P24941)", "test": "Selectivity interaction (KinomeScan (DiscoverX)) EUB0000595a CDK2", "details": "at 10 µM"}, "[7]": {"target": "Protein-tyrosine kinase 2-beta (Homo sapiens) (UniProt Q14289)", "sequence (Q14289 whole entry, looked up)": "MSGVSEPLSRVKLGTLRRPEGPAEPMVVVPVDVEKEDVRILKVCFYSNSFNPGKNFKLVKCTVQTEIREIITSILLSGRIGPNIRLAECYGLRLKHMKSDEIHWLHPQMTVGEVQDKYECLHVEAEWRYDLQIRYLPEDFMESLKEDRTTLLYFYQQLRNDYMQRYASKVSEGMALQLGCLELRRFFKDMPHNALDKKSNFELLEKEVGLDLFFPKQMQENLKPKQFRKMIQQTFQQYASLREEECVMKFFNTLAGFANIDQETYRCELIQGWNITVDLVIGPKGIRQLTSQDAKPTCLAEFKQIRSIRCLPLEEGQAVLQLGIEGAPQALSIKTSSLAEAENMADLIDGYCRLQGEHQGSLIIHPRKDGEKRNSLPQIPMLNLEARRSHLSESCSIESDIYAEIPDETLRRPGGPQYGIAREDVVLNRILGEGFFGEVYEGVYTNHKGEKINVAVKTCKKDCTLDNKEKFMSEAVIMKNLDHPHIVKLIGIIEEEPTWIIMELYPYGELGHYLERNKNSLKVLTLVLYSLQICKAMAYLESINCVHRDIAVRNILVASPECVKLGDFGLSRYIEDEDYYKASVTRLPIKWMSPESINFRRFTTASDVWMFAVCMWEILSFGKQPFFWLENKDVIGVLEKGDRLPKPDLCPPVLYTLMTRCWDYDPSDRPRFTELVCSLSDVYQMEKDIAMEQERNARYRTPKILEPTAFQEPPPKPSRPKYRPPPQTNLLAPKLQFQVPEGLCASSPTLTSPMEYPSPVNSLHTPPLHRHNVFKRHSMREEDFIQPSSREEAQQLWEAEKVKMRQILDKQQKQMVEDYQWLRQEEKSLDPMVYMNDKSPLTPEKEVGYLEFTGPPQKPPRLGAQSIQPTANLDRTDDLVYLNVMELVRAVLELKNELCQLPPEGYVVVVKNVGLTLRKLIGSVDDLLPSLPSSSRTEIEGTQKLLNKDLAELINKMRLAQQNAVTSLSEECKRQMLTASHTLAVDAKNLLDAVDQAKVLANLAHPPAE", "test": "Selectivity interaction (Kinase screening (Nanosyn)) EUB0000604a PTK2B"}, "[8]": {"target": "5'-AMP-activated protein kinase catalytic subunit alpha-1 (Homo sapiens, UniProt Q13131)", "sequence (Q13131 whole entry, looked up)": "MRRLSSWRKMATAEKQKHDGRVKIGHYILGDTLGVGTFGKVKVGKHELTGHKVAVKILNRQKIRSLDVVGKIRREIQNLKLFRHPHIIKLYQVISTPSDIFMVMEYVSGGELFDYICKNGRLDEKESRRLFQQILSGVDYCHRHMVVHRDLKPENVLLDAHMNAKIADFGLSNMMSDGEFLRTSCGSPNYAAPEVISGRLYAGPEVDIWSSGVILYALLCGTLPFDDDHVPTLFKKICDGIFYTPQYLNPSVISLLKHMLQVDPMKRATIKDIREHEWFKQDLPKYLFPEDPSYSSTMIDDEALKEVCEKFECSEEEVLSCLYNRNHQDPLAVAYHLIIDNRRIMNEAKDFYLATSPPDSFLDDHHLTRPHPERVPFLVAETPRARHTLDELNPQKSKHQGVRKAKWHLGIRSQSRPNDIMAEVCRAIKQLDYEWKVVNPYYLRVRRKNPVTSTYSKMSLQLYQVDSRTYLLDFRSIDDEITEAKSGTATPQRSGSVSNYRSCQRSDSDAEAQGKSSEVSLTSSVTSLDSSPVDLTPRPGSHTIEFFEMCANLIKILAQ", "test": "Selectivity interaction (Kinase panel (KiNativ target engagement assay in Jurkat cells)) EUB0001635a PRKAA1", "format": "cell-based", "details": "Selectivity number of off-targets 0.0, Selectivity number of targets 233.0, Source Knowledge https://www.sciencedirect.com/science/article/pii/S2451945619300674?via%3Dihub, at 1 µM"}},
  "data": [
    {"smiles": "Cn1cc(-n2cnc3c(NCc4nc5cc(Cl)c(Cl)cc5[nH]4)nc(N4CCOCC4)nc32)cn1", "values": [
      {"measurement": "% of inhibition", "setting": "[1]", "result": -172, "unit": "%"}
    ]},
    {"smiles": "CNC(=O)Nc1ccc(-c2nc(N3CC4CCC(C3)O4)c3cnn(C4CCC5(CC4)OCCO5)c3n2)cc1", "values": [
      {"measurement": "% of inhibition", "setting": "[2]", "result": 15, "unit": "%"}
    ]},
    {"smiles": "C=CC(=O)Nc1cccc(C(=O)Nc2ccc(Nc3cc(-c4[nH]c(SC)nc4C)ccn3)cc2)c1", "values": [
      {"measurement": "% of control", "setting": "[3]; at 1 µM", "result": 117, "unit": "%"},
      {"measurement": "% of control", "setting": "[3]; at 5 µM", "result": 133, "unit": "%"},
      {"measurement": "% of control", "setting": "[4]; at 1 µM", "result": 99, "unit": "%"},
      {"measurement": "% of control", "setting": "[4]; at 5 µM", "result": 86, "unit": "%"}
    ]},
    {"smiles": "Cc1cc(F)c(C(=O)Nc2cccc(-c3nncn3C(C)C)n2)cc1-n1cnc(C2CC2)c1", "values": [
      {"measurement": "% of control", "setting": "[5]", "result": 100, "unit": "%"}
    ]},
    {"smiles": "COCC(=O)NC/C=C/c1ccc2ncnc(Nc3ccc(Oc4ccc(C)nc4)c(C)c3)c2c1", "note": "[CP-724714]", "values": [
      {"measurement": "% of control", "setting": "[6]", "result": 92, "unit": "%"}
    ]},
    {"smiles": "Cc1cnc(Nc2ccc(F)cc2Cl)nc1-c1c[nH]c(C(=O)N[C@H](CO)c2cccc(Cl)c2)c1", "values": [
      {"measurement": "% of inhibition", "setting": "[7]", "result": 6, "unit": "%"}
    ]},
    {"smiles": "C=CC(=O)Nc1ccc(C(=O)Nc2[nH]nc3c2CN(C(=O)N[C@H](CN(C)C)c2ccccc2)C3(C)C)cc1", "values": [
      {"measurement": "% of engagement", "setting": "[8]", "result": 54.4, "unit": "%"}
    ]}
  ]
}
